According to PubChem BioAssay (NCI):
Where “and” joins values, the source holds several entries; their conditions need not be identical. Equal entries are not always repeated.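 96-well plates; 48 h exposure; 5 concentrations. Endpoints by linear interpolation between flanking doses. Not reached: highest tested concentration assigned. Here, GI50 denotes the concentration required for 50% inhibition of growth. Definition used: TGI = concentration required for complete inhibition of growth.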

Columns and labels:
Assay in all cases: growth of human tumour cells (NCI), 48 h
[1] = system: SF-295 CNS
[2] = system: SR leukemia
[3] = system: K-562 leukemia
[4] = system: UACC-257 melanoma
[5] = system: BT-549 breast
[6] = system: SK-MEL-2 melanoma
[7] = system: MCF7 breast
[8] = system: SNB-19 CNS
[9] = system: KM12 colon
[10] = system: SN12C renal

SMILES	TGI [1]	TGI [2] [µM]	TGI [3]	TGI [4]	TGI [5] [µM]	TGI [6]	TGI [7]	TGI [8]	TGI [9]	TGI [10]	GI50 [1] [µM]	GI50 [3] [µM]	GI50 [4] [µM]	GI50 [6] [µM]	GI50 [7] [µM]	GI50 [8] [µM]	GI50 [10] [µM]	GI50 [2] [µM]	GI50 [5] [µM]	GI50 [9] [µM]
O=C1CC(c2cccc([N+](=O)[O-])c2)C2(C(=O)NC(=S)NC2=O)C(c2cccc([N+](=O)[O-])c2)C1 (stereo not drawn)	> 100 µM	> 100	> 100 µM	> 100 µM	81.4	> 100 µM	50.9 µM	58.8 µM	> 100 µM	52.3 µM	–	–	–	–	–	–	–	–	–	–
O=C(Oc1cncc(Cl)c1)c1cc2ccccc2sc1=O	> 100 µM	76.8	> 100 µM	> 100 µM	> 100	90.7 µM	> 100 µM	> 100 µM	> 100 µM	> 100 µM	–	–	–	–	–	–	–	–	–	–
Oc1ccc(Nc2nc(Cl)c3[nH]cnc3n2)cc1	> 100 µM	> 100	> 100 µM	> 100 µM	> 100	87.3 µM	> 100 µM	> 100 µM	> 100 µM	> 100 µM	–	–	–	–	–	–	–	–	–	–
O=[N+]([O-])/C(Cl)=C(\NCCO)C(Cl)=C(Cl)Cl	> 100 µM	49.2	39.7 µM	> 100 µM	> 100	> 100 µM	> 100 µM	> 100 µM	> 100 µM	> 100 µM	–	–	–	–	–	–	–	–	–	–
COC(=O)c1ccc(C)cc1C1CN=NC12Cc1cccc(C)c1C2=O (stereo not drawn)	> 100 µM	> 100	68.4 µM	66 µM	91.4	63.8 µM	> 100 µM	> 100 µM	72.5 µM	> 100 µM	–	–	–	–	–	–	–	–	–	–
Cc1c2oc(=O)c(C#N)cc2c2ccccn12	40.7 µM	> 100	> 100 µM	> 100 µM	> 100	> 100 µM	> 100 µM	> 100 µM	> 100 µM	–	–	–	–	–	–	–	–	–	–	–
CCN(CC)CC[n+]1ccc2c(C)c3[nH]c4ccccc4c3c(C)c2c1	6.9 µM and 15.1 µM and 6.83 µM	3.01	5.43 µM and 3.49 µM and 2.19 µM	2.07 µM and 2.59 µM and 1.99 µM	4.95	1.56 µM and 3.43 µM and 1.29 µM	7.36 µM and 5.5 µM and 2.47 µM	1.41 µM and 1.48 µM and 1.33 µM	2.39 µM and 1.45 µM and 2.76 µM	1.9 µM and 0.925 µM and 2.68 µM	1.28	0.1	0.633	1.4	0.323	0.251	0.195	–	–	–
Cc1cc2ccccc2oc(=O)/c1=N\Nc1ccccc1	> 100 µM	> 100	> 100 µM	> 100 µM	> 100	> 100 µM	> 100 µM	> 100 µM	> 100 µM	> 100 µM	–	–	–	–	–	–	–	–	–	–
C#CCn1c(I)cc2c(c1=O)COC(=O)[C@]2(O)CC	> 100 µM	> 100	> 100 µM	> 100 µM	> 100	> 100 µM	> 100 µM	> 100 µM	> 100 µM	> 100 µM	–	–	–	–	–	–	–	–	–	–
CC(C)(C)c1cc(C(C)(C)C)c(SC2OC(CO)C(O)C(O)C2O)c(O)c1O (stereo not drawn)	28.3 µM	> 53	> 39.8 µM	> 72.6 µM	27	25 µM	> 34.2 µM	24.5 µM	20.8 µM	25.8 µM	–	–	–	–	–	–	–	–	–	–
Clc1cc(Cl)nc(Nc2ccc3c(c2)CCC3)n1	> 100 µM	77.6	46 µM	> 100 µM	> 100	> 100 µM	70.8 µM	> 100 µM	59.1 µM	> 100 µM	–	–	–	–	–	–	–	–	–	–
CC(C)(C)N=C1C(=O)C2(C)CCC1C2(C)C (stereo not drawn)	> 100 µM	> 100	> 100 µM	> 100 µM	> 100	> 100 µM	> 100 µM	> 100 µM	> 100 µM	–	–	–	–	–	–	–	–	–	–	–
COc1ccc(N=C(C)C(C)=Nc2ccc(OC)cc2)cc1	> 100 µM	> 100	> 100 µM	> 100 µM	> 100	> 100 µM	> 100 µM	> 100 µM	> 100 µM	> 100 µM	–	–	–	–	–	–	–	–	–	–
C[C@@H]1C[C@@H]2OC(=O)[C@]3(C)[C@H]2[C@@H](OC3(C)O)[C@]2(C)C(=O)C=C[C@@H]12 (stereo partly drawn)	> 100 µM	28.5	2.69 µM	50.2 µM	23.1	54.7 µM	32.7 µM	> 100 µM	58.7 µM	38.1 µM	–	–	–	–	–	–	–	–	–	–
O=C(NCc1cn(Cc2cccc(Oc3ccccc3)c2)nn1)c1cccnc1NCc1ccc(Cl)cc1	–	> 100	> 100 µM	> 100 µM	7.63	> 100 µM	> 100 µM	> 100 µM	> 100 µM	> 100 µM	–	3.24	3.83	4.44	2.99	3.91	3.44	3.31	2.72	3.62
